Test results taken from patent US5716982A, “Retinoids and methods of use of same” (priority 1995, dated 1998).
Like-named read-outs stand apart in the source and are kept apart here.

Tests used:
[1] = test system: Human promyelocytic leukemia HL-60 cells; experiment: Cell differentiation of HL-60 cells, nitroblue tetrazolium (NBT) reduction; assay type: cell-based; conditions: for EC50: Homo sapiens; for NBT (+) %: HL-60
Method: Human promyelocytic leukemia HL-60 cells were cultured in RPMI-1640 medium supplemented by 10% heat-inactivated calf serum and 100 U/ml of penicillin plus 100 μg/ml of streptomycin. The flasks containing cells and medium were incubated in an incubator with 5% CO2 at 37° C. Log phase cells were seeded into the medium at a concentration of 1.2×10^5to 1.4×10^5 cells per ml and cultured in flasks containing 5 ml of medium. Each group consisted of three flasks. Different concentrations of coumarin-retinoids were added. At intervals following the addition of coumarin-retinoids to the cultures, a small portion of cells was removed and live cells were counted under a light microscope using a dye-exclusionmethod with trypan blue. Cell differentiation was judged in terms of morphology and nitroblue tetrazolium (NBT) reduction.
For a determination of NBT reducing activity, a portion of the coumarin-retinoid-treated cells was removed at intervals following treatment and centrifuged. After centrifugation, 0.5 ml of 0.1% NBT (containing 100 ng TPA) was added to each tube. The contents of the test tubes were then incubated for 1 hour at 37° C. Cell smears were prepared from the cell sediment and stained using the Wright-Giemsa technique. For each smear prepared, 200 cells were isolated for examination under a light microscope with an oil immersion lens. Cells stained with blue-black granules were considered NBT-positive cells. The 50% differentiation or effective concentration (ED50 or EC50) is shown in terms of molar (M) concentration of the […] tested.
(§1) The protocols of Examples 14 and 21 were used, for the NBT and MTT assays, respectively.

[2] = test system: bone abnormalities in mouse fetus; experiment: Bone abnormalities in mouse fetus (anti-teratogenicity); assay type: in vivo
Method: Female mice were examined by vaginal smear the morning after being caged with male mice, and if sperm or a vaginal plug was discovered, then the mice were determined to be pregnant. The retinoids were administered at the dosage indicated starting on the seventh day of pregnancy and continued once a day for the next ten days. On the 20th day after the female mice were determined to be pregnant, they were sacrificed by cervical dislocation. Both sides of the uterus were checked and the number of living embryos, dead embryos, and absorbed embryos were counted. The living embryos were further examined for bone abnormalities.
After the embryos became transparent, they were dissected and their skeletons were checked by observation under a microscope.

HL-60 cells = experiment: MTT assay in HL-60 cells; assay type: cell-based, human; conditions: for inhibition at 10 µM: 10^-5 M; for inhibition at 10 µM / inhibition at 1 µM / inhibition at 0.1 µM / inhibition at 0.01 µM: HL-60; for inhibition at 1 µM: 10^-6 M; for inhibition at 0.1 µM: 10^-7 M; for inhibition at 0.01 µM: 10^-8 M
Method: Human cancer cell lines (KB, A2780, MCF-7, HL-60, A549) were used. For a monolayer culture, 0.5 ml of trypsin solution ([…]) was added to the flasks for digestion. Microtiter plates (96 well) were used for the cell culture and 200 μl of cell suspension (1200 tumor cells) were placed in each well and incubated at 37° C. for 24 hours. Following the addition of the test compound, the control and treated flasks were placed in a CO2 incubator for 5 day culture. For the MTT assay, 200 μl of MTT solution (5 mg in 10 ml of phosphate buffer) plus the medium were added and incubated for another 4 hours. Following incubation, the supernatant was discarded and 200 μl of DMSO was added to each well. With a mild agitation the OD values were determined by the MR 700 Elisa at 570 nm (reference wavelength was 450 nm). The ED50 of the compound and tumor cell survival rate [formula] as percent inhibition were calculated.
as §1

[3] = NBT reduction, 50% differentiation, HL-60 (Table 2), read-out: EC50
[4] = Homo sapiens, 120 h, MTT, HL-60 (Table 12), read-out: ED50 (the source's name)
[5] = Homo sapiens, 120 h, HL-60 (Table 15), read-out: MTT ED50

| SMILES | EC50 [1, 3] | IC50 (HL-60 cells; [4]) | inhibition at 10 µM (HL-60 cells; Homo sapiens, MTT) | inhibition at 1 µM (HL-60 cells; Homo sapiens, MTT) | inhibition at 0.1 µM (HL-60 cells; Homo sapiens, MTT) | further results |
| --- | --- | --- | --- | --- | --- | --- |
| CC(=O)c1cc2ccc(OC(=O)/C=C(C)/C=C/C=C(C)/C=C/C3=C(C)CCCC3(C)C)c(OC(=O)/C=C(C)/C=C/C=C(C)/C=C/C3=C(C)CCCC3(C)C)c2oc1=O [Compound I-9] | 65 nM | 950 nM | 61.5 ± 1.9% | 50.6 ± 0.5% | 48.8 ± 0.5% | Delayed Calcification, Occipital delay/fetus ([2]; 20 mg/kg): 0/75; Delayed Calcification, Sternum delay/fetus ([2]; 20 mg/kg): 0/75; Delayed Calcification, Occipital delay/fetus ([2]; 40 mg/kg): 3/77; Delayed Calcification, Sternum delay/fetus ([2]; 40 mg/kg): 2/77; inhibition at 0.01 µM (HL-60 cells; Homo sapiens, MTT): 28 ± 5.2% |
| CC1=C(/C=C/C(C)=C/C=C/C(C)=C/C(=O)Oc2ccc3c(C)cc(=O)oc3c2)C(C)(C)CCC1 [Compound I-32, 4-methyl-7-retinoyloxy-coumarin] | – | – | – | – | – | IC50 (HL-60 cells; HL-60 (Table 15), 7200 min, read-out: MTT ED50): 11000 nM |
| CC(=O)c1cc2c(OC(=O)/C=C(C)/C=C/C=C(C)/C=C/C3=C(C)CCCC3(C)C)c(C(=O)O)ccc2oc1=O [Compound I-8] | 59 nM | 100 nM | 63.9 ± 2.9% | 54 ± 1.9% | 50.5 ± 0.9% | inhibition at 0.01 µM (HL-60 cells; Homo sapiens, MTT): 29.7 ± 1.4% |
| CC1=C(/C=C/C(C)=C/C=C/C(C)=C/C(=O)Oc2cc(=O)oc3c(C)cccc23)C(C)(C)CCC1 [Compound I-29] | – | – | – | – | – | EC50 ([1]; HL-60 (Table 15), read-out: NBT ED50): > 10000 nM; IC50 (HL-60 cells; [5]): 1900 nM |
| CCOC(=O)c1cc2c(C(=O)O)cc(OC(=O)/C=C(C)/C=C/C=C(C)/C=C/C3=C(C)CCCC3(C)C)cc2oc1=O [Compound I-19] | 9000 nM | – | – | – | – | NBT (+) % ([1]; 10^-4 M): 84%; NBT (+) % ([1]; 10^-5 M): 5%; NBT (+) % ([1]; 10^-7 M): 92% |
| CCOC(=O)c1cc2ccc(OC(=O)/C=C(C)/C=C/C=C(C)/C=C/C3=C(C)CCCC3(C)C)c(C)c2oc1=O [Compound I-15] | 260 nM | 900 nM | 54.5 ± 2.8% | 48.8 ± 1.3% | 34.6% | inhibition at 0.01 µM (HL-60 cells; Homo sapiens, MTT): 16.2 ± 2.4% |
| CCc1cc2cc(C(C)=O)c(=O)oc2cc1OC(=O)/C=C(C)/C=C/C=C(C)/C=C/C1=C(C)CCCC1(C)C [Compound I-13] | – | > 10000 nM | 5.5 ± 3.9% | 4.3 ± 6.1% | 3.5 ± 3.9% | – |
| CC(=O)c1cc2c(COC(=O)/C=C(C)/C=C/C=C(C)/C=C/C3=C(C)CCCC3(C)C)cc(OC(=O)/C=C(C)/C=C/C=C(C)/C=C/C3=C(C)CCCC3(C)C)cc2oc1=O [Compound I-7] | 750 nM | – | – | – | – | – |
| CCCCCCc1cc2cc(C(C)=O)c(=O)oc2c(C)c1OC(=O)/C=C(C)/C=C/C=C(C)/C=C/C1=C(C)CCCC1(C)C [Compound I-14] | – | 9000 nM | 52.6 ± 1.3% | 30 ± 1.4% | 10.4 ± 2.4% | – |
| CCOC(=O)c1cc2ccc(OC(=O)/C=C(C)/C=C/C=C(C)/C=C/C3=C(C)CCCC3(C)C)cc2oc1=O [Compound I-17] | 1000 nM | – | – | – | – | – |
| CC1=C(/C=C/C(C)=C/C=C/C(C)=C/C(=O)Oc2cc3oc(=O)c(C(N)=O)cc3cc2Cl)C(C)(C)CCC1 [Compound I-27] | 550 nM | – | – | – | – | – |
| CC1=C(/C=C/C(C)=C/C=C/C(C)=C/C(=O)Oc2ccc3c(C)cc(=O)oc3c2C)C(C)(C)CCC1 [Compound I-30] | – | – | – | – | – | IC50 (HL-60 cells; [5]): > 10000 nM |
| CCCCCCCCCCCCOC(=O)c1cc(OC(=O)/C=C(C)/C=C/C=C(C)/C=C/C2=C(C)CCCC2(C)C)c(OC(=O)/C=C(C)/C=C/C=C(C)/C=C/C2=C(C)CCCC2(C)C)c2oc(=O)c(C(=O)OCC)cc12 [Compound I-12] | 10 nM | – | – | – | – | – |
